Source: ChEMBL document CHEMBL2311504, “Inhibition of the human deacylase Sirtuin 5 by the indole GW5074” (Bioorg Med Chem Lett, 2013)
Activity calls are given as the source filed them. The rule behind the calls is not given here.

Tests used:
[1] = biological target: T1, NAD-dependent protein deacylase sirtuin-5, mitochondrial (Homo sapiens, UniProt Q9NXA8); experiment: Inhibition of human Sirt5 deacetylation activity using FKRGVL-acetylLys-EYGVKV as substrate at 100 uM after 60 mins by glutamate dehydrogenase-coupled assay
Target sequence in this assay (Q9NXA8 37-310 limits assumed): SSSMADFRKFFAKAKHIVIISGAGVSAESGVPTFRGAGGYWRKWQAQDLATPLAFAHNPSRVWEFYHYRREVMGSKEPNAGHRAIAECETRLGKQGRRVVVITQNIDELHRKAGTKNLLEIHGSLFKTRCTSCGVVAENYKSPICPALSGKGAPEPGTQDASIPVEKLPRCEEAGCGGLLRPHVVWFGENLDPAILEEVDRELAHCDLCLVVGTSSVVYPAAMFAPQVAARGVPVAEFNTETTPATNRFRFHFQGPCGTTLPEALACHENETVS

[2] = biological target: T1, NAD-dependent protein deacylase sirtuin-5, mitochondrial; experiment: Inhibition of human Sirt5 desuccinylation activity using SKEYFS-succinylLys-QK as substrate at 100 uM after 60 mins by glutamate dehydrpgenase-coupled assay
Target sequence in this assay (Q9NXA8 37-310 limits assumed): as above

[3] = biological target: T1, NAD-dependent protein deacylase sirtuin-5, mitochondrial; experiment: Inhibition of human Sirt5 desuccinylation activity using SKEYFS-succinylLys-QK as substrate assessed as activity remaining at 100 µM measured for 20 mins by MS analysis
Target sequence in this assay (Q9NXA8 37-310 limits assumed): as above

[4] = biological target: T1, NAD-dependent protein deacylase sirtuin-5, mitochondrial; experiment: Inhibition of human Sirt5 deacetylation activity using FKRGVL-acetylLys-EYGVKV as substrate measured for 15 mins by MS analysis
Target sequence in this assay (Q9NXA8 whole entry): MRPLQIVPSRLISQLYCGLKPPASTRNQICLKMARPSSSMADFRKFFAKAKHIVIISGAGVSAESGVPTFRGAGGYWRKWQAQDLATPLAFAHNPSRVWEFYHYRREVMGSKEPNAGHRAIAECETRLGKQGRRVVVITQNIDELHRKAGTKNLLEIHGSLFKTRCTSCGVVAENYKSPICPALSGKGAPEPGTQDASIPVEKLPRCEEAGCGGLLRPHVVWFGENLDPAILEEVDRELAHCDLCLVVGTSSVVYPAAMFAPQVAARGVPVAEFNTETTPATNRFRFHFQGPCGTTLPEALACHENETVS

[5] = biological target: T1, NAD-dependent protein deacylase sirtuin-5, mitochondrial; experiment: Inhibition of human Sirt5 desuccinylation activity using SKEYFS-succinylLys-QK as substrate measured for 15 mins by MS analysis
Target sequence in this assay (Q9NXA8 whole entry): as above

[6] = biological target: T1, NAD-dependent protein deacylase sirtuin-5, mitochondrial; experiment: Inhibition of human Sirt5 deacetylation activity using SKEYFS-acetylLys-QK as substrate measured for 15 mins by MS analysis
Target sequence in this assay (Q9NXA8 whole entry): as above

[7] = biological target: T1, NAD-dependent protein deacylase sirtuin-5, mitochondrial; experiment: Selectivity ratio of IC50 for human Sirt5 deacetylation activity to IC50 for human Sirt5 desuccinylation activity
Target sequence in this assay (Q9NXA8 37-310 limits assumed): as the sequence (Q9NXA8 37-310 limits assumed) above

[8] = biological target: T1, NAD-dependent protein deacylase sirtuin-5, mitochondrial; experiment: Inhibition of human Sirt5 deacetylation activity using FKRGVL-acetylLys-EYGVKV as substrate assessed as activity remaining at 100 µM measured for 20 mins by MS analysis
Target sequence in this assay (Q9NXA8 37-310 limits assumed): as above

| inhibition [1] | inhibition [2] | Compound | further results |
| --- | --- | --- | --- |
| Active | 20% | Cc1ccc(C(=O)Nc2ccc(S(=O)(=O)O)c3cc(S(=O)(=O)O)cc(S(=O)(=O)O)c23)cc1NC(=O)c1cccc(NC(=O)Nc2cccc(C(=O)Nc3cc(C(=O)Nc4ccc(S(=O)(=O)O)c5cc(S(=O)(=O)O)cc(S(=O)(=O)O)c45)ccc3C)c2)c1 | – |
| inactive | 20% | CC(C(=O)Nc1cccc(/N=C/c2c(O)ccc3ccccc23)c1)c1ccccc1 (stereo not given) | – |
| inactive | inactive | N#C/C(=C\c1ccc(-c2cc(Cl)ccc2Cl)o1)C(=O)Nc1cccc2ncccc12 | – |
| inactive | inactive | CC(NC(=O)c1ccccc1/N=C/c1c(O)ccc2ccccc12)c1ccccc1 (stereo not given) | – |

Second part, the compound before the results:

| Compound | inhibition [1] | inhibition [2] | further results |
| --- | --- | --- | --- |
| O=C1Oc2ccc3cc(Br)ccc3c2CC1c1ccccc1 (stereo not given) | inactive | inactive | – |
| O=C1Nc2ccc(I)cc2C1=Cc1cc(Br)c(O)c(Br)c1 [GW305074X] | – | – | Activity [3]: 15%; IC50 [4]: 97.8 µM; IC50 [5]: 19.5 µM; IC50 [6]: 200 µM; Ratio IC50 [7]: 4; Activity [8]: 30% |
| O=C(Nc1ccccc1-c1cn2c(CN3CCNCC3)csc2n1)c1cnc2ccccc2n1 | inactive | inactive | – |
| NC(=O)C1CCCc2c1[nH]c1ccc(Cl)cc21 (stereo not given) | inactive | inactive | – |
